For assay [1], the system named is binding site 2 of the sodium channel. The assay can be described thus: Binding investigations at sodium channel binding site 2 (BTX binding). As to conditions: 10 μM; rat cerebrocortex synaptosomes; [3H]-Batrachotoxinin A20 α-benzoate 10 nM; 37° C., 120 min. As for the experimental part:
Binding Investigations at Sodium Channel Binding Site 2
Binding site 2 of the sodium channel is the so-called batrachotoxin (BTX) binding site. [^3H]-Batrachotoxinin A20 α-benzoate (10 nM in the batch) was used as ligand. These ion channel particles (synaptosomes) were enriched from rat cerebrocortex after Gray and Whittaker (E. G. Gray and V. P. Whittaker (1962) J. Anat. 76, 79-88). The radioactivity measured in the presence of veratridine (0.3 mM in the batch) is defined as non-specific binding.
The assay conditions were as published by Pauwels, Leysen and Laduron (P. J. Pauwels, J. E. Leysen and P. M. Laduron (1986) Eur. J. Pharmacol. 124, 291-298). Incubation at 37° C. for 120 min.

A further assay deals with T1, NA transporter (Rattus norvegicus, UniProt Q63380).
T1 construct: synaptosomes were freshly isolated from rat brain regions; from tissue; host or cells: rat hypothalamus synaptosomes (P2 fraction)
T1 sequence (Q63380 1-617): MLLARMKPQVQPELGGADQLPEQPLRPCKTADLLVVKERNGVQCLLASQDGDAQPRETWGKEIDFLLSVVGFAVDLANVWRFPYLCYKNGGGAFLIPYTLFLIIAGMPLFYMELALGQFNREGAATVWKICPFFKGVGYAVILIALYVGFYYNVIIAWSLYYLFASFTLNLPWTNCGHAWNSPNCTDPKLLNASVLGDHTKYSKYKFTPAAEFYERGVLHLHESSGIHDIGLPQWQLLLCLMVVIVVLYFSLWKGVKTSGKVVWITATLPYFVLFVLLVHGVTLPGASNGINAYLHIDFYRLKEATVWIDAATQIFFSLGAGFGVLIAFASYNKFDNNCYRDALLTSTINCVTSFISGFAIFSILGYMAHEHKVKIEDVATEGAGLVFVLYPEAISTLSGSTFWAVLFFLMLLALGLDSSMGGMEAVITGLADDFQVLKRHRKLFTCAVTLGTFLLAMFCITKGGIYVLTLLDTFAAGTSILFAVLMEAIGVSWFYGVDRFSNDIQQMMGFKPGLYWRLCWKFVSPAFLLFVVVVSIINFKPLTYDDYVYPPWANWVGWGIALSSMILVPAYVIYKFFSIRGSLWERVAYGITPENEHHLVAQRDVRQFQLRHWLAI
The assay can be described thus: Noradrenaline reuptake inhibition (NA uptake inhibition) in synaptosomes. It counts as biochemical. As to conditions: synaptosomes from hypothalamus of male rat brains. As for the experimental part:
In order to be able to carry out these in vitro studies, synaptosomes were freshly isolated from rat brain regions. A so-called “P2” fraction was used, which was prepared according to the instructions given by Gray and Whittaker (E. G. Gray and V. P. Whittaker (1962) J. Anat. 76, 79-88).

For `CN1CCN(CC2CCCCCC2(O)c2ccc(Cl)cc2)CC1` (stereo not drawn) [1-(4-Chloro-phenyl)-2-(4-methyl-piperazin-1-ylmethyl)-cycloheptanol], the “BTX binding at 10 μM [%] inhibition” value in assay [1] turned out to be 69%. The inhibition (commonly how much of the control response was suppressed) at 10 µM against NA transporter was 70%.

For the compound `Cc1cc(C2(O)CCCCCC2CN2CCN(C)CC2)ccc1F` (stereo not drawn) [1-(4-Fluoro-3-methyl-phenyl)-2-(4-methyl-piperazin-1-ylmethyl)-cycloheptanol], the “BTX binding at 10 μM [%] inhibition” value in assay [1] was determined as 69%. On NA transporter, this compound registered an inhibition at 10 µM of 66%.

Take `Cc1cc(C2(O)CCCCC2CN2CCN(C)CC2)ccc1F` (stereo not drawn) [1-(4-Fluoro-3-methyl-phenyl)-2-(4-methyl-piperazin-1-ylmethyl)-cyclohexanol]: the “BTX binding at 10 μM [%] inhibition” value in assay [1] came out at 60%. The inhibition at 10 µM against NA transporter was 65%.

In the case of `Cc1cccc(C2(O)CCCCC2CN2CCN(C)CC2)c1` (stereo not drawn) [2-(4-Methyl-piperazin-1-ylmethyl)-1-m-tolyl-cyclohexanol], the “BTX binding at 10 μM [%] inhibition” value in assay [1] worked out at 58%. The compound further yielded an inhibition at 10 µM against NA transporter of 44%.

Turning to `Cc1ccc(C2(O)CCCCC2CN2CCN(C)CC2)cc1` (stereo not drawn) [2-(4-Methyl-piperazin-1-ylmethyl)-1-p-tolyl-cyclohexanol], in assay [1], the “BTX binding at 10 μM [%] inhibition” value is listed as 53%. On NA transporter, this compound yielded an inhibition at 10 µM of 75%.

As for `CN1CCN(CC2CCCCC2(O)CCc2ccccc2)CC1` (stereo not drawn) [2-(4-Methyl-piperazin-1-ylmethyl)-1-phenethyl-cyclohexanol], the “BTX binding at 10 μM [%] inhibition” value in assay [1] was found to be 65%. The same compound gave an inhibition at 10 µM against NA transporter of 71%.

On to `CN1CCN(CC2CCCCCCC2(O)CCc2ccccc2)CC1` (stereo not drawn) [2-(4-Methyl-piperazin-1-ylmethyl)-1-phenethyl-cyclooctanol], for which the “BTX binding at 10 μM [%] inhibition” value in assay [1] is on record as 78%. On NA transporter, this compound registered an inhibition at 10 µM of 61%.

`CN1CCN(CC2CCCCCC2(O)c2ccccc2)CC1` (stereo not drawn) [2-(4-Methyl-piperazin-1-ylmethyl)-1-phenyl-cycloheptanol]: the “BTX binding at 10 μM [%] inhibition” value in assay [1] was found to be 63%. The compound also yielded an inhibition at 10 µM against NA transporter of 50%.

In turn, `CCC(O)(Cc1ccc(Cl)cc1)C(C)CN1CCN(c2cccc(Cl)c2)CC1` (stereo not drawn) [3-(4-Chloro-benzyl)-1-[4-(3-chloro-phenyl)-piperazin-1-yl]-2-methyl-pentan-3-ol] displayed an inhibition at 10 µM at NA transporter of 39%.

As for `CCC(O)(c1ccc(Cl)cc1)C(C)CN1CCN(c2cccc(Cl)c2)CC1` (stereo not drawn) [3-(4-Chloro-phenyl)-1-[4-(3-chloro-phenyl)-piperazin-1-yl]-2-methyl-pentan-3-ol], at NA transporter, at 10 µM the inhibition was 54%.

`CCC(O)(c1ccc(C(C)(C)C)cc1)C(C)CN1CCN(c2cccc(Cl)c2)CC1` (stereo not drawn) [3-(4-tert-Butyl-phenyl)-1-[4-(3-chloro-phenyl)-piperazin-1-yl]-2-methyl-pentan-3-ol] yielded an inhibition at 10 µM at NA transporter of 62%.

As for `CCC(O)(Cc1ccccc1)C(C)CN1CCN(c2cccc(Cl)c2)CC1` (stereo not drawn) [3-Benzyl-1-[4-(3-chloro-phenyl)-piperazin-1-yl]-2-methyl-pentan-3-ol], the inhibition at 10 µM on NA transporter was determined as 55%.

`CCC(O)(CCc1ccccc1)C(C)CN1CCN(C)CC1` (stereo not drawn) [3-Ethyl-2-methyl-1-(4-methyl-piperazin-1-yl)-5-phenyl-pentan-3-ol]: in assay [1], the “BTX binding at 10 μM [%] inhibition” value was determined as 74%. Besides, the inhibition at 10 µM against NA transporter turned out to be 88%.

Take `CCC(O)(C#Cc1ccccc1)C(C)CN1CCN(c2cccc(Cl)c2)CC1` (stereo not drawn) [5-[4-(3-Chloro-phenyl)-piperazin-1-yl]-3-ethyl-4-methyl-1-phenyl-pent-1-yn-3-ol]: at 10 µM the inhibition at NA transporter was 46%.

`C=CC(O)(CC)C(C)CN1CCN(c2cccc(Cl)c2)CC1` (stereo not drawn) [5-[4-(3-Chloro-phenyl)-piperazin-1-yl]-3-ethyl-4-methyl-pent-1-en-3-ol] gave an inhibition at 10 µM on NA transporter of 53%.

For the origin of these results see patent US7390812B2, “N, N'-disubstituted piperazine compounds and their use as analgesics” (Gruenenthal GmbH, priority 2001, dated 2008).
